Reference: US20250170090A1, “METHOD FOR PREVENTING OR TREATING DISEASE OR DISORDER ASSOCIATED WITH ANTINEOPLASTIC AGENT” (ONQUALITY PHARMACEUTICALS CHINA LTD., priority 2022, published 2025)

What was measured:
[1] = system: hand-foot syndrome caused by anti-tumor agents; assay: Treatment of established hand-foot syndrome caused by anti-tumor agents in rats (Table 4); format: in vivo; conditions: Days 7
Procedure: After the rats (about 200 g) were fed and adapted for one week, the rats were divided into groups of 10 rats for gavage administration experiment. The anti-tumor agent was dissolved in a mixed solution of Cremophor EL:ethanol=1:1, and diluted with PBS to the required concentration (diluted about 3 times with PBS solution) before gavage. […] Specific experimental procedures followed those outlined in the prevention experiment. […] Table 4 lists the animal experiments using various anti-tumor agents and NO-NSAID ointment, as well as the corresponding experimental results (where the value in the control rate column=the incidence rate of hand-foot syndrome in the blank group−the incidence rate of hand-foot syndrome in the treatment group).

[2] = system: chemotherapy-induced hand-foot syndrome; assay: Prevention of chemotherapy-induced hand-foot syndrome in rat models (Table 5); format: in vivo, SD rats; conditions: Capecitabine 4000 mg/kg once a day, Days 40
Procedure: Rat animal model was constructed. After several days, the rats develop hand-foot syndrome in their paws. After one week of acclimatization (about 200 g), the SD rats are divided into groups of 10 rats each, followed by gavage administration experiment. The chemotherapy drugs were dissolved, and each rat was given a gavage dose of 1 mL/100 g. After gavage, the rats were fixed with a fixed cylinder. NO-NSAID ointment was applied to the paws of the rats in the medication group, and blank ointment was applied to the paws of the rats in the blank group (as blank control). […] Table 5 lists the animal experimental combinations of chemotherapy drugs and NO-NSAID ointment, as well as the corresponding experimental results (where the value in the control rate column=the incidence rate of hand-foot syndrome in the blank group−the incidence rate of hand-foot syndrome in the treatment group).

[3] = system: human immortalized keratinocytes (HaCaT); assay: CCK-8 cell viability: alleviation of proliferative toxicity of anti-tumor agents on HaCaT (Table 8-1); format: cell-based; conditions: NO-NSAID 100 μM, percentage increase in viable cells vs anti-tumor agent alone
Procedure: (§1) Experiments were conducted using various epithelial cells: Examples 47-51 used human immortalized keratinocytes (HaCaT) with corresponding results in Table 8-1; Examples 52-56 used human oral keratinocytes (HOK) with results in Table 8-2; Examples 57-61 used gastric epithelial cells (GES-1) with results in Table 8-3; Examples 62-66 used human intestinal epithelial cells (FHs 74 Int) with results in Table 8-4.
(§2) The cultured cells were digested the suspended, counted, and seed into a 96-well plate with 5,000-10,000 cells per well. The wells are divided into the following groups: blank control group, anti-tumor agent group, anti-tumor agent+NO-NSAID group, anti-tumor agent solvent group, NO-NSAID solvent control group. Wherein each well of each group contained a basic medium, and the final liquid volume contained in each well was about 100 μL. The grouping situation was as follows: • 1) Blank control group: no solution was added except normally replacing the medium; • 2) Anti-tumor agent group: added the anti-tumor agent solution (the final concentration was shown in Table 8-1 to Table 8-4, the solvent of the anti-tumor agent solution was DMSO); • 3) Anti-tumor agent+NO-NSAID group: added the anti-tumor agent solution and the NO-NSAID solution (the final concentrations of anti-tumor agent and NO-NSAID were shown in Table 8-1 to Table 8-4, and according to the solubility of NO-NSAID, the solvent of NO-NSAID solution was selected as ethanol or sterile water, and minor volume differences in each group were adjusted by added the corresponding solvent); • 4) Anti-tumor agent solvent group: an equal volume of DMSO as contained in the corresponding anti-tumor agent solution in Group 2) was added; • 5) NO-NSAID control group: the same volume and type of solvent (for example, ethanol or sterile water) corresponding to the NO-NSAID contained in group 3) was added.
(§3) The anti-tumor agent solvent group was not involved in data processing and was only used as a reference for evaluating experimental system error. The NO-NSAID solvent control group was used for data correction to eliminate the influence of the solvent on the results.
(§4) After culturing for 24-48 hours, the Cell Counting Kit-8 (CCK-8) detection kit (C0037, Shanghai Beyotime Biotechnology Co., Ltd., Beyotime Biotechnology) was used to determine the cell viability. This allows for the calculation of the proliferative toxicity of anti-tumor agent on cell and the mitigating effect of NO-NSAID on proliferative toxicity. The results were statistically analyzed and plotted using GraphPad Prism 6.0 software and t test.

[4] = system: human oral keratinocytes (HOK); assay: CCK-8 cell viability: alleviation of proliferative toxicity of anti-tumor agents on HOK (Table 8-2); format: cell-based; conditions: NO-NSAID 100 μM
Procedure: as §1, §2, §3, §4

[5] = system: gastric epithelial cells (GES-1); assay: CCK-8 cell viability: alleviation of proliferative toxicity of anti-tumor agents on GES-1 (Table 8-3); format: cell-based, human; conditions: NO-NSAID 100 μM
Procedure: as §1, §2, §3, §4

[6] = system: human intestinal epithelial cells (FHs 74 Int); assay: CCK-8 cell viability: alleviation of proliferative toxicity of anti-tumor agents on FHs 74 Int (Table 8-4); format: cell-based; conditions: NO-NSAID 100 μM
Procedure: as §1, §2, §3, §4

CC(=O)Oc1ccccc1C(=O)OCOC(=O)CCCCCO[N+](=O)[O-] [Compound A3]
Response rate ([1]; Regorafenib 90 mg/kg once every two days, ointment 1% wt): 33.33%
Response rate ([1]; Sorafenib 80 mg/kg once every two days, ointment 3% wt): 42.86%
Control rate ([2]; ointment 1% wt): 28.57%
Control rate ([2]; ointment 3% wt): 37.50%
Response rate % (average) ([3]; Afatinib (10 μM)): 24%
Response rate % (average) ([3]; Cabozantinib (5 μM)): 24%
Response rate % (average) ([3]; Dabrafenib (10 μM)): 3%
Response rate % (average) ([3]; Everolimus (5 μM)): −10%
Response rate % (average) ([3]; Infigratinib (15 μM)): 1%
Response rate % (average) ([3]; Lapatinib (5 μM)): 22%
Response rate % (average) ([3]; Lenvatinib (10 μM)): 0%
Response rate % (average) ([3]; Olmutinib (10 μM)): 37%
Response rate % (average) ([3]; Regorafenib (5 μM)): 33%
Response rate % (average) ([3]; Selumetinib (5 μM)): 20%
Response rate % (average) ([3]; Sorafenib (5 μM)): 33%
Response rate % (average) ([3]; Sunitinib (5 μM)): 19%
Response rate % (average) ([4]; Afatinib (10 μM)): 27%
Response rate % (average) ([4]; Cabozantinib (5 μM)): 8%
Response rate % (average) ([4]; Dabrafenib (10 μM)): 4%
Response rate % (average) ([4]; Everolimus (5 μM)): −8%
Response rate % (average) ([4]; Infigratinib (15 μM)): 7%
Response rate % (average) ([4]; Lapatinib (5 μM)): −4%
Response rate % (average) ([4]; Lenvatinib (10 μM)): 18%
Response rate % (average) ([4]; Olmutinib (10 μM)): 35%
Response rate % (average) ([4]; Regorafenib (5 μM)): 12%
Response rate % (average) ([4]; Selumetinib (5 μM)): 16%
Response rate % (average) ([4]; Sorafenib (5 μM)): 30%
Response rate % (average) ([4]; Sunitinib (5 μM)): 14%
Response rate % (average) ([5]; Afatinib (10 μM)): 7%
Response rate % (average) ([5]; Cabozantinib (5 μM)): 14%
Response rate % (average) ([5]; Dabrafenib (10 μM)): 7%
Response rate % (average) ([5]; Everolimus (5 μM)): 19%
Response rate % (average) ([5]; Infigratinib (15 μM)): 28%
Response rate % (average) ([5]; Lapatinib (5 μM)): 20%
Response rate % (average) ([5]; Lenvatinib (10 μM)): 22%
Response rate % (average) ([5]; Olmutinib (10 μM)): 33%
Response rate % (average) ([5]; Regorafenib (5 μM)): 26%
Response rate % (average) ([5]; Selumetinib (5 μM)): 19%
Response rate % (average) ([5]; Sorafenib (5 μM)): 24%
Response rate % (average) ([5]; Sunitinib (5 μM)): 4%
Response rate % (average) ([6]; Afatinib (10 μM)): 26%
Response rate % (average) ([6]; Cabozantinib (5 μM)): 13%
Response rate % (average) ([6]; Dabrafenib (10 μM)): −8%
Response rate % (average) ([6]; Everolimus (5 μM)): 14%
Response rate % (average) ([6]; Infigratinib (15 μM)): 6%
Response rate % (average) ([6]; Lapatinib (5 μM)): 23%
Response rate % (average) ([6]; Lenvatinib (10 μM)): 25%
Response rate % (average) ([6]; Olmutinib (10 μM)): 29%
Response rate % (average) ([6]; Regorafenib (5 μM)): 29%
Response rate % (average) ([6]; Selumetinib (5 μM)): 29%
Response rate % (average) ([6]; Sorafenib (5 μM)): 26%
Response rate % (average) ([6]; Sunitinib (5 μM)): 25%
